Patent US10646483B2, “Crystal form of imidazolone type compounds, and preparation method, pharmaceutical composition and use thereof” (Foreland Pharma Co., Ltd., priority 2016, dated 2020)
Where two headings read alike, the source gives them in different places.

How the values were obtained:
[1] = Test of dissolution rate in distilled water; type: physicochemical; settings: 3 mg in 1 ml distilled water, shaken at 20-25° C. for 5 seconds
Procedure: 3 mg each of Crystal Form VII, Crystal Form I, and Crystal Form VI, were weighed, and put into three 1 ml plastic centrifuge tubes, respectively. To each tube was added 1 ml of distilled water and shaken at 20-25° C. for 5 seconds.

[2] = Metabolic experiments after oral (intragastric) administration to SD rats; type: in vivo; settings: 10 mg/kg; for AUC(0-inf) / AUC(0-t) / MRT / Tmax / Cmax / half-life: rat, po
Procedure: 11.392 mg of Crystal Form I of Compound 1 hydrochloride was suspended in […] of 0.5% sodium carboxymethylcellulose, mixed to form a homogenous suspension, and then sonicated for 2 min to give a homogenous suspension having a concentration of 2 mg/mL (the suspension present was prepared on the day of administration, and stored for no more than 4 hours). Three SD rats were intragastrically administered at a dose of 10 mg/kg body weight, and blood analysis was performed at the set time points.

[3] = Tableting stability test (XRPD before and after tableting); type: physicochemical; settings: manually tableted, 8 mm tablets, ground, FIG. 7
Description: A small amount of Crystal Form I of Compound 1 hydrochloride monohydrate of Example 1 was taken and manually tableted to tablets with a diameter of 8 mm. The tablets were then gently ground. […] The XRPD patterns of the powders before and after the tableting of Crystal Form I were compared.

[4] = Solid stability test of Crystal Form I (drug stability test box: high temperature, high humidity, strong illumination); type: physicochemical
Description: A small amount of Crystal Form I of Compound 1 hydrochloride monohydrate of Example I-1 was taken and placed in a drug stability test box. The conditions were controlled as listed in Table 1 for the stability test. The results of the purities and the contents are listed in Table I-1, and the results of the crystal form tests are shown in FIGS. 4 to 6.

[5] = SD (Sprague-Dawley), blood, SD rat, Rat 1
[6] = SD (Sprague-Dawley), blood, SD rat, Rat 2
[7] = SD (Sprague-Dawley), blood, SD rats, Average of three rats
[8] = Active Pharmaceutical Ingredient, Initial
[9] = Illumination (4500 Lx ± 500 Lx), Day 5
[10] = Illumination (4500 Lx ± 500 Lx), Day 10
[11] = high temperature, high humidity and strong illumination, up to Day 10

Structure (SMILES): Cn1cc(-c2ccc(-c3ccc4ncc5c(c4c3)n([C@H]3CC[C@@H](O)CC3)c(=O)n5C)cn2)cn1 [Crystal Form VII, 1-((1s,4s)-4-hydroxycyclohexyl)-3-methyl-8-(6-(1-methyl-1H-pyrazol-4-yl)pyridin-3-yl)-1H-imidazo[4,5-c]quinoline-2(3H)-one]
- time to dissolve completely [1]: ≤ 0.00278 h

Structure (SMILES): Cn1cc(-c2ccc(-c3ccc4ncc5c(c4c3)n([C@H]3CC[C@@H](O)CC3)c(=O)n5C)cn2)cn1 [Crystal Form VI, 1-((1s,4s)-4-hydroxycyclohexyl)-3-methyl-8-(6-(1-methyl-1H-pyrazol-4-yl)pyridin-3-yl)-1H-imidazo[4,5-c]quinoline-2(3H)-one]
- time to dissolve completely [1]: > 5 h

Structure (SMILES): Cn1cc(-c2ccc(-c3ccc4ncc5c(c4c3)n([C@H]3CC[C@@H](O)CC3)c(=O)n5C)cn2)cn1 [Crystal Form I, 1-((1s,4s)-4-hydroxycyclohexyl)-3-methyl-8-(6-(1-methyl-1H-pyrazol-4-yl)pyridin-3-yl)-1H-imidazo[4,5-c]quinoline-2(3H)-one]
- time to dissolve completely [1]: 5 h
- time to dissolve substantially [1]: 2 h
- AUC(0-inf) [2, 5]: 247 µg·h/mL
- AUC(0-t) [2, 5]: 235 µg·h/mL
- MRT [2, 5]: 6.74 h
- Tmax [2, 5]: 2.8 h
- Cmax ([2]; SD (Sprague-Dawley), blood, SD rat, Rat 1, read-out: Cmax): 19000 ng/mL
- AUC(0-inf) [2, 6]: 192 µg·h/mL
- AUC(0-t) [2, 6]: 183 µg·h/mL
- MRT [2, 6]: 7.13 h
- Tmax [2, 6]: 4 h
- Cmax ([2]; SD (Sprague-Dawley), blood, SD rat, Rat 2, read-out: Cmax): 12100 ng/mL
- half-life ([2]; SD (Sprague-Dawley), blood, SD rat, Rat 2, read-out: t½ (converted)): 5.4 h
- half-life ([2]; SD (Sprague-Dawley), blood, SD rat, suspension in 0.5% sodium carboxymethylcellulose, Rat 1, read-out: t½ (converted)): 5.28 h
- AUC(0-inf) [2, 7]: 201 µg·h/mL
- AUC(0-t) [2, 7]: 191 µg·h/mL
- MRT [2, 7]: 6.84 h
- AUC Extr ([2]; SD rat, Rat 1): 4.72%
- AUC/D ([2]; SD rat, Rat 1): 11758 ng·kg·h/mg/mL
- AUC Extr ([2]; SD rat, Rat 2): 4.70%
- AUC/D ([2]; SD rat, Rat 2): 9171 ng·kg·h/mg/mL
- AUC Extr ([2]; SD rat, Rat 3): 5.96%
- AUC/D ([2]; SD rat, Rat 3): 7675 ng·kg·h/mg/mL
- AUC Extr ([2]; SD rats, Average of three rats): 5.13%
- AUC/D ([2]; SD rats, Average of three rats): 9535 ng·kg·h/mg/mL
- AUC(0-inf) ([2]; SD, plasma, SD rat, Rat 3): 163 µg·h/mL
- AUC(0-t) ([2]; SD, plasma, SD rat, Rat 3): 154 µg·h/mL
- MRT ([2]; SD, plasma, SD rat, Rat 3): 6.65 h
- Tmax ([2]; SD, plasma, SD rat, Rat 3): 2.5 h
- Cmax ([2]; SD, plasma, SD rat, Rat 3, read-out: Cmax): 12700 ng/mL
- half-life ([2]; SD, plasma, SD rat, Rat 3, read-out: t½ (converted)): 5.81 h
- Tmax ([2]; SD, plasma, SD rats, Average of three rats): 3.1 h
- Cmax ([2]; SD, plasma, SD rats, Average of three rats, read-out: Cmax): 14600 ng/mL
- half-life ([2]; SD, plasma, SD rats, Average of three rats, read-out: t½ (converted)): 5.5 h
- AUC(0-t) ([2]; SD, plasma, SD rats, average value): 191 µg·h/mL
- half-life ([2]; SD, plasma, SD rats, average value, read-out: half-life (converted)): 5.5 h
- Cmax ([2]; SD, plasma, SD rats, average value, read-out: maximum plasma concentration (Cmax)): 14600 ng/mL
- effect of tableting process on crystal form (XRPD) [3]: did not change
- Content % ([4]; 25° C./95% RH, Day 5): 100.86%
- Impurity % ([4]; 25° C./95% RH, Day 5): 0.72%
- Purity % ([4]; 25° C./95% RH, Day 5): 99.28%
- Content % ([4]; 25° C./95% RH, Day 10): 99.61%
- Impurity % ([4]; 25° C./95% RH, Day 10): 0.74%
- Purity % ([4]; 25° C./95% RH, Day 10): 99.26%
- Content % ([4]; 60° C., Day 5): 99.62%
- Impurity % ([4]; 60° C., Day 5): 0.73%
- Purity % ([4]; 60° C., Day 5): 99.27%
- Content % ([4]; 60° C., Day 10): 99.51%
- Impurity % ([4]; 60° C., Day 10): 0.79%
- Purity % ([4]; 60° C., Day 10): 99.21%
- Content % [4, 8]: 100.41%
- Impurity % [4, 8]: 0.74%
- Purity % [4, 8]: 99.26%
- Content % [4, 9]: 99.84%
- Impurity % [4, 9]: 0.93%
- Purity % [4, 9]: 99.07%
- Content % [4, 10]: 99.50%
- Impurity % [4, 10]: 0.87%
- Purity % [4, 10]: 99.13%
- crystal form (XRPD) after stability test ([4]; high temperature, high humidity and strong illumination (FIGS. 4 to 6)): remains unchanged
- fluctuation of the content [4, 11]: ≤ 1%
- fluctuation of the purity [4, 11]: ≤ 0.2%
